Marks after values point to notes of the source that are not given here.
Experiments:
[1] = Solubility and solution pressure of blowing agents in Quantum "Petrothene" grade low density polyethylene, same procedure; assay type: physicochemical
[2] = Solubility and solution pressure of blowing agents in polystyrene resin, calculated with the Flory-Huggins equation; assay type: physicochemical; conditions: for WT% Blowing Agent Dissolves in Resin: atmospheric pressure (14.7 psia, 1 bar)
Description: Certain aspects of the invention are illustrated by the Figures. The accompanying figures illustrate the suitability of HFC-134 as blowing agent for producing polystyrenic foam bodies, the data presented therein were obtained with the aid of the well-known Flory-Huggins equation (Flory, P.J.: "Principles of Polymer Chemistry"; Cornell University Press, Ithaca, N.Y.), discussed below.
These equilibrium pressures relate to the point in the extrusion process where blowing agent is mixed with resin; foaming cannot occur at these pressures.
The data presented in Figures 3-6 were determined through use of the Flory-Huggins equation for phase equilibria in polymer solutions. This equation uses values for the following parameters [(1) - (4)], which were obtained as follows: (1) liquid densities of the blowing agents, g/cc, were derived by using standard methods, drawing a straight line through the liquid density data (based on National Institute of Standards and Technology, NIST, experimental data; with equations based on the Modified Benedict-Webb-Rubin, MBWR, equation of state) from -50°C to 50°C and calculating the liquid density as a function of temperature. The density (d) equation recites: d=AT+B, wherein A is the slope of the line, B is the constant of the line, and T temperature (°C). The liquid densities are (grams/cubic centimeter, g/cm^3):
(2) The densities of the superheated vapors of the blowing agents, which are tabulated below, were calculated from the known vapor data of their thermodynamic properties (based on National Institute of Standards and Technology, NIST, experimental data; with equations based on the Modified Benedict-Webb-Rubin, MBWR, equation of state).
(3) The activity coefficients for the blowing agents that are tabulated below:
These coefficients were determined by dividing the experimental blowing agent partial pressure by the saturated vapor pressure at that temperature. (4) The interaction parameters, X1, were determined at four temperatures, and are presented graphically as a function of temperature in Figure 2 by means of the following equation and equation constants: X1 = A/T + B [formula] (where T = °K = °C + 273.2)
Such data are presented graphically in Figures 3, 4, 5 and 6. Figures 3-6 are plots of "weight% Blowing Agent Dissolved in Resin vs. Pressure of Solution" as a function of temperature. Representative solubilities of the blowing agents in the given resin at various extrusion process temperatures at atmospheric pressure (14.7 psia, 1 bar), are listed below in Table 1: Table 1

[3] = low density polyethylene, 25°C, 1 Atm
[4] = low density polyethylene, 180°C, 1 Atm
[5] = low density polyethylene, Extruder Temp 180°C
[6] = polystyrene resin, 25°C (footnote *)

SMILES	Solubility (wt % HFC) at 1 Atm of HFC Pres. 25°C [1, 3] [wt % HFC]	Solubility (wt % HFC) at 1 Atm of HFC Pres. Ext Temp [1, 4] [wt % HFC]	Limiting Solubility (wt % HFC) [1, 5] [wt % HFC]	Limiting Solubility (wt % HFC) [2] [wt % HFC]	Solubility (wt % HFC) at 1 Atm of HFC Pres. 25°C [2] [wt % HFC]	Solubility (wt % HFC) at 1 Atm of HFC Pres. Ext Temp [2] [wt % HFC]	WT% Blowing Agent Dissolves in Resin ([2]; polystyrene resin, 20°C) [WT%]	WT% Blowing Agent Dissolves in Resin ([2]; polystyrene resin, 60°C) [WT%]	WT% Blowing Agent Dissolves in Resin ([2]; polystyrene resin, 100°C) [WT%]	WT% Blowing Agent Dissolves in Resin ([2]; polystyrene resin, 140°C) [WT%]	WT% Blowing Agent Dissolves in Resin ([2]; polystyrene resin, 180°C) [WT%]	WT% Blowing Agent Dissolves in Resin ([2]; polystyrene resin, 200°C) [WT%]	Limiting Solubility (wt % HFC) [1] [wt % HFC]	Solubility (wt % HFC) at 1 Atm of HFC Pres. 25°C [1] [wt % HFC]	Solubility (wt % HFC) at 1 Atm of HFC Pres. Ext Temp [1] [wt % HFC]	HFC-134/HFC-134a solubility ratio [2]	WT% Blowing Agent Dissolves in Resin [2, 6]	Solubility (wt % HFC) at 1 Atm of HFC Pres. 25°C ([2]; polystyrene resin, 25°C, 1 Atm) [wt % HFC]	Solubility (wt % HFC) at 1 Atm of HFC Pres. Ext Temp ([2]; polystyrene resin, 180°C, 1 Atm) [wt % HFC]	Limiting Solubility (wt % HFC) ([2]; polystyrene resin, Extruder Temp 180°C)
CCF [HFC-161, 1-fluoroethane]	0.22	0.24	89	–	–	–	–	–	–	–	–	–	–	–	–	–	–	–	–	–
CC(F)F [HFC-152a, 1,1-difluoroethane]	–	–	–	83	0.76	0.2	0.8	0.5	0.4	0.3	0.2	0.15	–	–	–	–	–	–	–	–
FC(F)C(F)F [HFC-134, 1,1,2,2-tetrafluoroethane]	–	–	–	81	0.54	0.2	–	0.5	0.4	0.3	0.2	0.15	81	0.64	0.20	about 2/1	0.6* WT%	–	–	–
FC(F)(Cl)C(F)(F)Cl [HCFC-114, 1,2-dichloro-1,1,2,2-tetrafluoroethane]	2.01	0.38	78	–	–	–	–	–	–	–	–	–	–	–	–	–	–	–	–	–
FCC(F)(F)F [HFC-134a, 1,1,1,2-tetrafluoroethane]	0.22	0.14	74	–	–	–	–	0.2	0.19	0.15	0.1	0.08	–	–	–	–	0.16* WT%	0.16	0.11	69
CC(F)(F)F [HFC-143a, 1,1,1-trifluoroethane]	–	–	–	69	0.04	0.07	0.04	0.08	0.13	0.1	0.07	0.05	–	–	–	–	–	–	–	–
